In patent US9434688B2, “Indole derivatives as selective androgen receptor modulators (SARMS)” (Janssen Pharmaceutica, NV, priority 2004, dated 2016):
Values joined by “and” are separate entries in the source; they are usually repeats but may differ in a detail not shown here. Equal values may be shown once.

Columns and labels:
[1] = tested on: castrated male Sprague Dawley rats; assay: Ventral Prostate and Seminal Vesicle Weight In Vivo Assay; set-up: species or system rat; key: active: non weight adjusted prostate weight was ≦40 mg or the % Inhibition prostate weight, body weight adjusted was ≧40% @ 2 mg/day dosage; inactive: they did not meet the specified criteria defined above; conditions: immature castrated male rats, once daily for five days, with testosterone propionate 2 mg/kg subcutaneously
Protocol: Immature (approximately 50 g) castrated male Sprague Dawley rats (Charles River) were treated once daily for five days with test compound (usually given orally at 40 mg/kg in a volume of 0.3 mL, in 30% cyclodextrin or 0.5% methylcellulose vehicle) and with testosterone propionate (given subcutaneously by injection at the nape of the neck at 2 mg/kg, in a volume of 0.1 mL in sesame oil). On the sixth day, the rats were euthanized by asphyxiation in carbon dioxide. Ventral prostates and seminal vesicles were removed and their wet weights determined.
A test compound was said to be “active” if the non weight adjusted prostate weight was ≦40 mg or the % Inhibition prostate weight, body weight adjusted was ≧40% @ 2 mg/day dosage.

androgen receptor = target: T1, androgen receptor (Rattus norvegicus, UniProt P15207); assay: COS-7 Whole-Cell Androgen Receptor Binding Assay, Adenovirus Transduction
T1 sequence (P15207 1-902): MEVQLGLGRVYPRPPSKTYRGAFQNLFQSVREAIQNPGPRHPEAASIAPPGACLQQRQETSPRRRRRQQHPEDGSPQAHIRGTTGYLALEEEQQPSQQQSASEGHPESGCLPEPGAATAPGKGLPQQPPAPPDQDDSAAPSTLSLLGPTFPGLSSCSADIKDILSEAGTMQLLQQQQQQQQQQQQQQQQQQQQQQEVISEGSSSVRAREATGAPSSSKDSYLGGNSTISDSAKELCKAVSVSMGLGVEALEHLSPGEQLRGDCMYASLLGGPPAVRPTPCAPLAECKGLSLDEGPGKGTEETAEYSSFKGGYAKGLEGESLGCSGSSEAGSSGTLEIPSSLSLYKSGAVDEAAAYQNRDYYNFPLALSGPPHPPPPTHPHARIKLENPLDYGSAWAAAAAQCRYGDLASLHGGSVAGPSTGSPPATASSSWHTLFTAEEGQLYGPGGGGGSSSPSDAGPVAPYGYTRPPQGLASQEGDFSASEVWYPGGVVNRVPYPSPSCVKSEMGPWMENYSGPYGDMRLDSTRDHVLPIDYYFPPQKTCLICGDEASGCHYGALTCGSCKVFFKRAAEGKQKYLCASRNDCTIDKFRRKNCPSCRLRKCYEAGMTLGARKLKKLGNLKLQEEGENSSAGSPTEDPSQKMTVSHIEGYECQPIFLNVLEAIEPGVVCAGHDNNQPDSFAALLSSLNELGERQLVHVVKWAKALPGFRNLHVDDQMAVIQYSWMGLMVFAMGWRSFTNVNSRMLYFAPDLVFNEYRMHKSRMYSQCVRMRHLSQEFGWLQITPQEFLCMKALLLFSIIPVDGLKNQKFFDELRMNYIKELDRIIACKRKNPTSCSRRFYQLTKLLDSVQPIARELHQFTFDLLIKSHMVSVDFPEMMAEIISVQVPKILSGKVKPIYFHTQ
Protocol: COS-7 cells were plated in 96-well plates at 20,000 cells per well, in a solution of DMEM/F12 (GIBCO) containing 10% (v/v) charcoal-treated fetal bovine serum (Hyclone) and lacking phenol red. The cells were then incubated overnight at 37° C. in 5% (v/v) humidified CO2.
Test compound solutions were prepared by diluting the test compound in 100% (v/v) DMSO, if necessary.
Next, 1 mL of DMEM/F12 lacking phenol red was pipetted into each of the wells of a 2-mL 96-well assay block. […] The wells were carefully mixed by pipette.
In a 15 mL or 50 mL sterile centrifuge tube, a dilution in DMEM/F12 of the adenovirus AdEasy+rAR at a moi of 1:50 per well was prepared.
The medium was removed from the 96-well plates by inversion and the plates dried very briefly, inverted, on a sterile towel. As soon as possible after medium removal, 40 μL of the diluted test compound was added to each well, in duplicate. […] The plates were then incubated for 48 hours at 37° C. in 5% (v/v) humidified CO2.
The medium was removed from the above incubated plates by inversion and dried. Each well was then washed with 0.35 mL of 1×PBS. The PBS was then removed from the plates by inversion and the plates dried.
To each well was then added 50 μL of 0.5% (v/v) Triton X-100 (Sigma) in 1×PBS and the plates placed on a rotary shaker for 5 min. The contents of each well were then transferred to an OptiPlate-96 (Packard) scintillation plate. To each well was then added 0.2 mL of Microscint-20 (Packard) and the wells counted on a TopCount (Packard).
Percent inhibition was determined by testing dilutions of the test compound (usually duplicates of 10 μM) in the binding assay. Counts per well were measured and percents of inhibition determined. […] Counts per well were measured and IC50s determined by linear regression.

CCSCC(O)c1cc2cc([N+](=O)[O-])c(C(F)(F)F)cc2[nH]1 (racemic) [compound 158]
active / inactive: inhibition of testosterone-enhanced prostate weight [1]: inactive | % Inhibition (androgen receptor): 62% and 56%
